The text below walks through data of patent US4044051A, “9[2-(1-Al koxy-ethyl)-5,5-dimethyl-cyclopent-1-en-1-yl]-3,7-dimethyl-nona-2,4,6,8-t etraen acid compounds” (Hoffmann-La Roche Inc., priority 1971, dated 1977).

Series [1] is described as follows: acute toxicity (delayed toxicity in mice after 20 days), i.p. in rape oil. Format: in vivo. The conditions noted are these: mouse, ip. The text has this:
(§1) The toxicity of the polyene compound of formula I is slight.

For series [2], the system named is mice. The description is as above. Format: in vivo.
From the text: as §1

Where only a bound is given, the exact number is not on record here.

In general, LD50 refers to the dose expected to kill half of the subjects tested. Higher therefore signals a less toxic substance.

`COC(C)C1=C(C=CC(C)=CC=CC(C)=CC(=O)O)C(C)(C)CC1` (centres unmarked) [9-[2-(1-methoxyethyl)-5,5-dimethyl-cyclopent-1-en-1-y1]-3,7-dimethyl-nona-2,4,6,8-tetraen-1-acid]: the LD50 at 24 h in series [1] (after 1 day) was > 4000 mg/kg. The LD50 at 240 h in series [1] (after 10 days) turned out to be 350 mg/kg. For the same molecule, the LD10 in series [2] (after 1 day) is recorded as > 4000 mg/kg; in series [2] (after 10 days) it was 290 mg/kg; in series [2] (after 20 days) it was 290 mg/kg. Besides, the LD90 in series [2] (after 1 day) is recorded as > 4000 mg/kg; in series [2] (after 10 days), 430 mg/kg; in series [2] (after 20 days), 430 mg/kg.
